Results from ChEMBL document CHEMBL5053519, “Discovery and structure - activity relationship exploration of pyrazolo[1,5-a]pyrimidine derivatives as potent FLT3-ITD inhibitors” (Bioorg Med Chem, 2021).
The source made the active and inactive calls. No cut-off for these calls is given here.

Experiments:
MOLM-13 = assay: cells; details: Homo sapiens, MOLM-13, 72 h
Description: Antiproliferative activity against human MOLM-13 cells assessed as reduction in cell viability incubated for 72 hrs by CCK8 assay

[1] = molecular target: T1, Receptor-type tyrosine-protein kinase FLT3 (Homo sapiens, UniProt P36888)
T1 sequence (P36888 whole entry): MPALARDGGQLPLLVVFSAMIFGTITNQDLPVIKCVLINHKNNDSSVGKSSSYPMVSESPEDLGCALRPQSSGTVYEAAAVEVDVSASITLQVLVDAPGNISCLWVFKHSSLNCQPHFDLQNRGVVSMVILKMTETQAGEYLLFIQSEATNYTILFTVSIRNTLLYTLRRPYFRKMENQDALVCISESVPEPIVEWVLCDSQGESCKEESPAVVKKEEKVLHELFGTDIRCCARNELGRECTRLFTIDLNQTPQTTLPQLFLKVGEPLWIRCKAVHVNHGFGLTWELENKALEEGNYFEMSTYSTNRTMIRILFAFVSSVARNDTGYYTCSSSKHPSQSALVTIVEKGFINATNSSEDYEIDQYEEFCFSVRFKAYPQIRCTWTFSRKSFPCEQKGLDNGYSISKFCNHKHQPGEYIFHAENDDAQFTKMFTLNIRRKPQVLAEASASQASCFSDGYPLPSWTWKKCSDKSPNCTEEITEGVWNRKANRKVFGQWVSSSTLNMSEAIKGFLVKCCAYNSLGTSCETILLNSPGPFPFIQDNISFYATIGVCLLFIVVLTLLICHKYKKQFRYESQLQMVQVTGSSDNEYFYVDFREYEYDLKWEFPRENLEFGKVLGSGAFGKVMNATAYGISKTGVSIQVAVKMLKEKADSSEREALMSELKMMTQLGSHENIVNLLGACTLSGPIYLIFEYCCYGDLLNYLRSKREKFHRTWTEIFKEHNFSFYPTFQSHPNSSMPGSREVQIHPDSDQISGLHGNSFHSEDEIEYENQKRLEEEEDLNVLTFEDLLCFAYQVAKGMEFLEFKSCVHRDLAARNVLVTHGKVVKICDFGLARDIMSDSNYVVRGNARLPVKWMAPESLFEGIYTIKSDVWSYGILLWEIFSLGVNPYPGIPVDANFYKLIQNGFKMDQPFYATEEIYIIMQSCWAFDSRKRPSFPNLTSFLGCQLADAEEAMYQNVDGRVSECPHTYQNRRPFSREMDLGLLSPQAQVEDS
Description: Inhibition of FLT3 (unknown origin) using Poly (Glu,Tyr) 4:1 as substrate incubated for 1 hr in presence of ATP by ELISA

[2] = molecular target: Receptor-type tyrosine-protein kinase FLT3 (Homo sapiens, UniProt P36888, ITD)
Description: Inhibition of FLT3-ITD mutant (unknown origin) using Poly (Glu,Tyr) 4:1 as substrate incubated for 1 hr in presence of ATP by ELISA

MV4-11 = assay: cells; details: Homo sapiens, MV4-11, 72 h
Description: Antiproliferative activity against human MV4-11 cells assessed as reduction in cell viability incubated for 72 hrs by CCK8 assay

[3] = molecular target: Receptor-type tyrosine-protein kinase FLT3 (Homo sapiens, UniProt P36888, D835Y)
[4] = molecular target: Receptor-type tyrosine-protein kinase FLT3 (Homo sapiens) (UniProt P36888); details: MV4-11, dose 1.1 nM, time 2.0 hrs
[5] = molecular target: Receptor-type tyrosine-protein kinase FLT3 (Homo sapiens) (UniProt P36888); assay: Inhibition of FLT3 in human MV4-11 cells assessed as suppression of Erk phosphorylation incubated for 2 hrs by Western blot analysis; type: cell-based; details: dose 0.1-10 nM
[6] = molecular target: Receptor-type tyrosine-protein kinase FLT3 (Homo sapiens) (UniProt P36888); details: MV4-11, dose 1.1 nM, time 2.0 hrs; remark: listed apart in the source
[7] = molecular target: Receptor-type tyrosine-protein kinase FLT3 (Homo sapiens) (UniProt P36888); assay: Inhibition of FLT3 phosphorylation in human MV4-11 cells at 0.1 to 10 nM incubated for 2 hrs by Western blot analysis; type: cell-based; details: dose 0.1-10 nM

Compound	IC50 (MOLM-13) [nM]	IC50 [1] [nM]	IC50 [2] [nM]	IC50 (MV4-11) [nM]	IC50 [3] [nM]	inhibition [4] [%]	inhibition [5]	inhibition [6] [%]	inhibition [7]
Cc1cc(N2CCOCC2)ccc1NC(=O)c1cnn2ccc(N[C@@H]3CCCNC3)nc12	13.8	1.4	1.1	7.5	–	–	–	–	–
COc1cc(N2CCOCC2)ccc1NC(=O)c1cnn2ccc(N3CCC[C@@H](N)C3)nc12	28.3	3.5	1.3	11.2	–	–	–	–	–
COc1cc(N2CCCCC2)ccc1NC(=O)c1cnn2ccc(N[C@@H]3CCCNC3)nc12	13	8	69.5	9.8	–	–	–	–	–
O=C(Nc1ccc(N2CCOCC2)cc1C(F)(F)F)c1cnn2ccc(N[C@@H]3CCNC3)nc12	16.3	5.5	96.7	8	–	–	–	–	–
COc1cc(N(C)CCN(C)C)ccc1NC(=O)c1cnn2ccc(N[C@@H]3CCCNC3)nc12	23.5	3.5	37.5	10	–	–	–	–	–
COc1cc(N2CCN(S(C)(=O)=O)CC2)ccc1NC(=O)c1cnn2ccc(N3CCC[C@@H](N)C3)nc12	43.7	3.9	18.7	26.5	–	–	–	–	–
CCOc1cc(N2CCOCC2)ccc1NC(=O)c1cnn2ccc(N[C@@H]3CCCNC3)nc12	11.4	2.7	4.1	9.8	–	–	–	–	–
O=C(Nc1ccc(N2CCOCC2)cc1F)c1cnn2ccc(N[C@@H]3CCCNC3)nc12	16.5	25.1	110	9.8	–	–	–	–	–
O=C(Nc1ccc(N2CCOCC2)cc1)c1cnn2ccc(N[C@@H]3CCCNC3)nc12	37.1	37.7	21.6	23.5	–	–	–	–	–
O=C(Nc1ccc(N2CCOCC2)cc1C(F)(F)F)c1cnn2ccc(NC3CCCCC3)nc12	> 1000	> 1000	> 1000	> 1000	–	–	–	–	–
COc1cc(N2CCC(N3CCOCC3)CC2)ccc1NC(=O)c1cnn2ccc(N[C@@H]3CCCNC3)nc12	10.3	2.9	18	6.3	–	–	–	–	–
COc1cc(N2CCCC2)ccc1NC(=O)c1cnn2ccc(N[C@@H]3CCCNC3)nc12	19.5	7.1	83.1	11.7	–	–	–	–	–
NC(=O)c1cc(N2CCOCC2)ccc1NC(=O)c1cnn2ccc(N[C@@H]3CCCNC3)nc12	> 1000	8.7	7.2	172	–	–	–	–	–
O=C(Nc1ccc(N2CCOCC2)cc1Br)c1cnn2ccc(N[C@@H]3CCCNC3)nc12	0.6	0.4	0.8	< 0.32	0.4	–	–	–	–
O=C(Nc1ccc(N2CCOCC2)cc1C(F)(F)F)c1cnn2ccc(N[C@H]3CN4CCC3CC4)nc12	26.3	7	11.7	5.13	–	–	–	–	–
O=C(Nc1ccc(N2CCOCC2)cc1C(F)(F)F)c1cnn2ccc(N[C@@H]3CCCNC3)nc12	1	0.4	1	1.3	0.3	100	Dose-dependent effect	100	Active
CN(c1ccn2ncc(C(=O)Nc3ccc(N4CCOCC4)cc3C(F)(F)F)c2n1)[C@@H]1CCCNC1	> 1000	160	> 1000	> 1000	–	–	–	–	–
COc1cc(N2CCN(C(C)=O)CC2)ccc1NC(=O)c1cnn2ccc(N[C@@H]3CCCNC3)nc12	17.4	1.4	1.2	7.66	–	–	–	–	–
O=C(Nc1ccc(N2CCOCC2)cc1C(F)(F)F)c1cnn2ccc(NC3CNC3)nc12	157	39.9	30.7	29.5	–	–	–	–	–
CC(C)Oc1cc(N2CCOCC2)ccc1NC(=O)c1cnn2ccc(N[C@@H]3CCCNC3)nc12	35.9	32.9	197	34.8	–	–	–	–	–
O=C(Nc1ccc(N2CCOCC2)cc1C(F)(F)F)c1cnn2ccc(NC3CCNCC3)nc12	155	16.5	6.7	28.5	–	–	–	–	–
N#Cc1cc(N2CCOCC2)ccc1NC(=O)c1cnn2ccc(N[C@@H]3CCCNC3)nc12	3.7	2.6	2	0.6	–	–	–	–	–
COc1ccccc1NC(=O)c1cnn2ccc(N[C@@H]3CCCNC3)nc12	19.4	38.2	144	5.3	–	–	–	–	–
COc1cc(N2CCOCC2)ccc1NC(=O)c1cnn2ccc(N[C@@H]3CCCNC3)nc12	10.3	2.7	3.1	1	–	–	–	–	–
COc1cc(N2CCNCC2)ccc1NC(=O)c1cnn2ccc(N3CCC[C@@H](N)C3)nc12	249	3.8	1.9	46	–	–	–	–	–
COc1cc(N2CCN(C)CC2)ccc1NC(=O)c1cnn2ccc(N3CCC[C@@H](N)C3)nc12	17	12	3.7	7	–	–	–	–	–
CN1CCC[C@@H](Nc2ccn3ncc(C(=O)Nc4ccc(N5CCOCC5)cc4C(F)(F)F)c3n2)C1	262	264	181	23.4	–	–	–	–	–
CSc1cc(N2CCOCC2)ccc1NC(=O)c1cnn2ccc(N[C@@H]3CCCNC3)nc12	2.5	1.2	1.6	< 0.32	–	–	–	–	–
O=C(Nc1ccc(N2CCOCC2)cc1C(F)(F)F)c1cnn2ccc(N[C@H]3CCCNC3)nc12	111	> 1000	296	12.9	–	–	–	–	–
O=C(Nc1ccc(N2CCOCC2)cc1C(F)(F)F)c1cnn2ccc(N[C@@H]3CCCCNC3)nc12	1.4	0.8	0.5	< 0.32	–	–	–	–	–
